The test system of this experiment is M. tuberculosis H37Rv growth inhibition. The experiment can be described thus: Mycobacterium tuberculosis H37Rv growth inhibition, putative kinase inhibitor library, confirmatory dose response (AID 2842).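 Note: bacteria incubated one week before Alamar blue readout.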

Converted amounts (≈) assume the structure as drawn.

The term IC90 denotes the concentration needed for an effect of 90%.

On to `CSc1nnc(C)c(=O)n1COC(=O)c1ccc2ccccc2c1`, for which the 90% effect concentration (IC90) was 3.38 µg/mL (≈ 9.9 µM).
Then `COc1ccc(-c2nnc3c4cc(OC)ccc4n(Cc4ccccc4F)cc2-3)cc1`, with 9.08 µg/mL (≈ 22 µM).
With `O=C(Nc1nnc(-c2ccc3c(c2)OCCO3)o1)c1nc2ccccc2s1` the figure was 25.8 µg/mL (≈ 67.9 µM); with `CCOC(=O)c1c(NC(=O)c2ccccc2Br)sc2c1CC(C)(C)NC2(C)C`, 8.85 µg/mL (≈ 19 µM); with `Cc1ccc(C)c(-c2nnc(NC(=O)c3ccccc3F)o2)c1`, under 0.2 µg/mL.
Then `CC(=O)N1CCc2c(sc(NC(=O)c3cccs3)c2C(N)=O)C1`, with 3.21 µg/mL (≈ 9.19 µM).
On to `COc1cc2ccccc2cc1C(=O)Nc1nnc(-c2cc(C)ccc2C)o1`, for which the 90% effect concentration (IC90) is 1.23 µg/mL (≈ 3.29 µM).
With `CCS(=O)(=O)c1ccc(C(=O)Nc2nnc(-c3ccc(Br)cc3)o2)cc1` the figure was 24.6 µg/mL (≈ 56.4 µM); with `Oc1ccc(Nc2nc(NCc3ccccc3)c3ccccc3n2)cc1`, 2.59 µg/mL (≈ 7.56 µM); with `O=C(CCCN1C(=O)/C(=C\c2ccco2)SC1=S)Nc1ccccn1`, 4.87 µg/mL (≈ 13 µM).
With `COC(=O)CSCC(=O)Nc1nnc(-c2cccc(C)c2)s1` the figure was 23.9 µg/mL (≈ 70.8 µM); with `COc1cccc(NC(=O)C2C(=O)CN(c3ccccc3)C2=O)c1` (stereo not given), 4.41 µg/mL (≈ 13.6 µM); with `Cc1ccc(-c2nnc(NC(=O)c3cc([N+](=O)[O-])ccc3Cl)o2)c(C)c1`, 1.57 µg/mL (≈ 4.21 µM).
With `Cc1ccccc1C(=O)Nc1nnc(-c2ccc(Cl)cc2)o1` the figure was 0.55 µg/mL (≈ 1.75 µM); with `Cc1ccc(-c2nnc(NC(=O)CCOc3ccccc3)o2)c(C)c1`, 1.8 µg/mL (≈ 5.34 µM); with `COc1ccc(-c2nnc(NC(=O)c3ccccc3C)o2)cc1`, 9.97 µg/mL (≈ 32.2 µM).
As to `Cc1ccc(C)c(C(=O)Nc2nnc(-c3cc(C)ccc3C)o2)c1`, the IC90 was 2.56 µg/mL (≈ 7.97 µM).
On to `Clc1ccc(Nc2ccc(NCc3ccccc3)nn2)cc1`, for which the IC90 was 5.5 µg/mL (≈ 17.7 µM).
With `Cc1ccc(-n2ccnc(NCC(C)c3ccccc3)c2=O)cc1C` (stereo not given) the figure was 18.1 µg/mL (≈ 54.4 µM); with `O=C(Nc1nnc(C2=COCCO2)o1)c1ccc(Cc2ccccc2)cc1`, 28.1 µg/mL (≈ 77.4 µM).
For `COc1ccccc1-c1nnc(NC(=O)c2ccco2)o1`, the IC90 was 13.4 µg/mL (≈ 46.9 µM).
Then `O=C(NCCCSc1nc2ccccc2o1)Nc1ncccn1`, with 25.1 µg/mL (≈ 76.1 µM).
With `CCOc1ccc(C(=O)Nc2nnc(-c3ccccn3)o2)cc1` the figure was 1.03 µg/mL (≈ 3.32 µM).
Then `COc1ccc(CCNc2cnnc(NCCc3ccc(OC)cc3)n2)cc1`, with 24.5 µg/mL (≈ 64.6 µM).
`N#Cc1ccc(C(=O)Nc2nnc(-c3ccc(Cl)cc3)o2)cc1`: the IC90 was 56.7 µg/mL (≈ 174 µM).
Then `COc1cc2c3nnc(-c4ccc(Cl)cc4)c-3cn(Cc3ccccc3F)c2cc1OC`, with 22.2 µg/mL (≈ 49.7 µM); and `O=C(Nc1ncc(Cc2ccccc2Cl)s1)c1cccs1`, with 18.3 µg/mL (≈ 54.5 µM); and `O=C(Cc1ccccc1)Nc1nnc(-c2ccc3c(c2)OCCO3)o1`, with 15.8 µg/mL (≈ 47 µM).
With `CCOC(=O)N1CCc2c(sc(NC(=O)CCOc3ccccc3)c2C(N)=O)C1` the figure was 12.4 µg/mL (≈ 29.7 µM).
As to `Cc1cc(C)c2nc(NNC(=O)c3ccccc3F)sc2c1`, the IC90 was 3.08 µg/mL (≈ 9.77 µM).
With `CC(C)c1ccc2nc(Nc3nc4ccc(S(C)(=O)=O)cc4s3)sc2c1` the figure was 12 µg/mL (≈ 29.8 µM); with `COc1ccc2nc(NNC(=O)c3cccc(F)c3)sc2c1`, 15.8 µg/mL (≈ 49.8 µM); with `O=C(CSc1c[nH]c2ccccc12)Nc1ccc(Br)cc1`, 3.2 µg/mL (≈ 8.86 µM).
With `Cc1cc(C)cc(Nc2nc(Nc3ccc(F)cc3)nc(N3CCOCC3)n2)c1` the figure was 11.1 µg/mL (≈ 28 µM).
Turning to `CCOC(=O)COc1cccc(/C=C2\Oc3cc(OC)ccc3C2=O)c1`, the IC90 is 3.52 µg/mL (≈ 9.93 µM).
With `CCOc1ccc2c(c1)O/C(=C\c1cccc(OCC(=O)OC)c1)C2=O` the figure was 1.66 µg/mL (≈ 4.68 µM).
With `COc1cccc2sc(Nc3nc4ccc(S(C)(=O)=O)cc4s3)nc12` the figure was 20.2 µg/mL (≈ 51.7 µM).
Then `CC1CN(c2ncnc3c2c(-c2ccccc2)cn3-c2ccccc2)CC(C)O1` (stereo not given), with 29.1 µg/mL (≈ 75.8 µM); and `CS(=O)(=O)Nc1cccc(C2=NN(c3nc(-c4ccccc4)c4cc(Cl)ccc4n3)C(c3ccco3)C2)c1` (stereo not given), with 1.42 µg/mL (≈ 2.61 µM).
On to `CC1CCCN(Cc2c(O)ccc3c(=O)c(-c4nc5ccccc5s4)c(N)oc23)C1` (stereo not given), for which the IC90 was 2.89 µg/mL (≈ 6.86 µM).
With `O=C(Nc1nnc(-c2cc(Cl)ccc2Cl)o1)c1nc2ccccc2s1` the figure was 10.5 µg/mL (≈ 26.7 µM).
Consider `O=C(Nc1nnc(-c2ccc(F)cc2)o1)c1cccc(Br)c1`, for which the IC90 is 93.6 µg/mL (≈ 259 µM).
With `Cc1nc2c(ccc3nc(NC(=O)Cc4ccccc4)sc32)s1` the figure was 2.92 µg/mL (≈ 8.6 µM); with `COc1ccc(-c2nc(C(N)=O)c3[nH]c(=O)n(-c4ccc(C(C)(C)C)cc4)c3n2)c(OC)c1`, 17.3 µg/mL (≈ 38.7 µM).
Then `COc1cccc(-c2nnc(NC(=O)C(C)C)o2)c1`, with 32.7 µg/mL (≈ 125 µM).
Then `COc1cc2c3nnc(-c4ccc(F)cc4)c-3cn(Cc3ccccc3)c2cc1OC`, with 12 µg/mL (≈ 29 µM); and `O=C(NCc1nnc(SCC(=O)N2CCC(Cc3ccccc3)CC2)o1)c1ccco1`, with 25.1 µg/mL (≈ 57 µM).
Consider `CN(C)S(=O)(=O)c1ccc(C(=O)N2CC(=O)Nc3ccc(Br)cc3C2c2ccccc2)cc1` (stereo not given), for which the IC90 was 35.3 µg/mL (≈ 66.8 µM).
With `COc1cc2c3nnc(-c4ccc(C)cc4)c-3cn(Cc3cccc(C)c3)c2cc1OC` the figure was 28.3 µg/mL (≈ 66.9 µM); with `Cc1ccc(-n2ncc3c(NCc4cccnc4)ncnc32)cc1C`, 6.03 µg/mL (≈ 18.3 µM).
